Test results taken from patent US9394317B2, “Imidazo pyridine compounds” (Eli Lilly and Company, priority 2013, dated 2016).

Experiments:
[1] = target: T1, recombinant human autotaxin (Homo sapiens, UniProt Q13822); assay: Inhibition of Autotaxin as Measured by Choline Release; assay type: biochemical; settings: substrate LPC 16:0 30 μM, 37° C., 1 hour; arithmetic mean
T1 construct: full length human autotaxin with a C-terminal His tag transfected into 293E cells; His tag (C); made in house; host or cells: 293E cells
Method: The purpose of this assay is to detect autotaxin inhibition using a choline release assay.
Test compounds (10 mM stocks in 100% DMSO) are serially diluted in 100% DMSO resulting in 10 concentrations of 100× inhibitor in half area 96 well plates (Corning 3992). Each of these 10 wells in 100% DMSO is diluted 1:33.33 in assay buffer in round bottom 96 well plates (Fisher 12565502) resulting in 3× concentrations in well containing 3% DMSO. The assay buffer is 50 mM Tris pH8.0, 5 mM KCl, 1 mM CaCl2, 1 mM MgCl2, 0.01% TRITON™ X-100 (Sigma T9284) and 0.01% fatty acid free bovine serum albumin (Sigma A8806). A 20 μl aliquot of each 3× test compound is then added to black flat bottom 96 well plates (Corning 3991) in singlicate. A 20 μl aliquot per well of 3× recombinant human autotaxin (full length human autotaxin with a C-terminal His tag transfected into 293E cells and purified via nickel chelate and size exclusion chromatography) is then added to every well except for the no enzyme control wells. […] The resorufin on the plates is measured with a SpectraMax Gemini EM fluorometer at excitation-emission wavelengths of 530-590 nm using SoftMax Pro 4.8 software. IC50s are calculated using 4 parameter curve fits with the internal Lilly software OLO curve fitting tool. Results are expressed as the arithmetic mean +/− standard deviation; n=x.

[2] = target: T2, endogenous autotaxin (Homo sapiens, UniProt Q13822); assay: Reduction of LPA in the Presence of Human Plasma; assay type: biochemical; settings: 90% pooled human plasma, 3 hours at 37° C., total LPA by mass spec; arithmetic mean
T2 construct: The increased endogenous LPC levels are cleaved by endogenous autotaxin; tissue Lampire Biologicals; host or cells: pooled human plasma (healthy female donors, sodium heparin)
Text: The following assay is intended to measure the reduction of LPA. This assay is a tool that can be used to identify selective autotaxin-mediated LPA inhibitor compounds when it is used to test compounds that have been identified as autotaxin inhibitors. LPA biosynthesis through autotaxin is believed to the source of LPA for LPA1 mediated neuropathic pain. Makoto Inoue, et. al, “Autotaxin, a synthetic enzyme of lysophosphatidic acid (LPA), mediates the induction of nerve-injured neuropathic pain”, Molecular Pain, 2008, 4:6. Targeted inhibition of the autotaxin mediated LPA biosynthesis is supported by the results of this assay.
Units of plasma from healthy human female donors collected in sodium heparin (Lampire Biologicals) are pooled, aliquoted and stored at −80° C. […] A 400 μl aliquot of extraction buffer (50% methanol, 49.9% acetonitrile, 0.1% acetic acid) containing LPA internal standards (50 ng/ml D5 deuterium LPA 16:0 and 50 ng/ml D5 deuterium LPA 18:0) is added to each well and the total LPA in each sample is determined by mass spec analysis. Percent reduction of LPA is calculated according to the following formula: 100−(3 hour plasma+test compound−0 hour plasma no test compound control)/(3 hour plasma no test compound control−0 hour plasma no test compound control)×100
IC50 values are calculated using 4 parameter curve fitting. […]

IC50 [1] [nM] | IC50 [2] [nM] | SMILES
< 1.7 | 2.22 | O=C(OCC1CCc2nccn2C1)N1Cc2cnc(NC3Cc4ccccc4C3)nc2C1 (single isomer, unassigned; isomer 2) [Example 3, 5,6,7,8-tetrahydroimidazo[1,2-a]pyridin-6-ylmethyl 2-(2,3-dihydro-1H-inden-2-ylamino)-5,7-dihydro-6H-pyrrolo[3,4-d]pyrimidine-6-carboxylate isomer 2]
2.04 | 12.9 | O=C(OCC1Cn2ccnc2CO1)N1Cc2cnc(NC3Cc4ccccc4C3)nc2C1 (single isomer, unassigned; isomer 2) [Example 8, 5,6-dihydro-8H-imidazo[2,1-c][1,4]oxazin-6-ylmethyl 2-(2,3-dihydro-1H-inden-2-ylamino)-5,7-dihydro-6H-pyrrolo[3,4-d]pyrimidine-6-carboxylate isomer 2]
